Here are results for one compound from patent US11149035B2, “Chemical compounds as H—PGDS inhibitors” (GlaxoSmithKline Intellectual Property Development Limited, priority 2017, dated 2021).

The test system of experiment [1] is limb muscle injury in male C57Bl/6N mice. The experiment is described as follows: In vivo assay for functional response to muscle injury (eccentric contraction-induced muscle fatigue). Also noted: species or system mouse. The following applies: FIG. 1. An excerpt:
Under anesthesia, the right hind limb of a mouse is restrained at the knee and the foot attached to a motorized footplate/force transducer. Needle electrodes are inserted into the upper limb, either side of the sciatic nerve and a current sufficient to elicit a maximal muscle contraction is applied. Muscle tension is produced by moving the footplate to lengthen the plantarflexor muscles while the limb is under maximal stimulation. This is repeated 60 times to fatigue the muscles of the lower limb. Anesthesia, limb immobilization and limb stimulation are then repeated at regular intervals to measure maximal isometric force in the recovering limb. 7 to 9 animals are tested for each test condition.

In experiment [2] the target is T1, haematopoietic prostaglandin D synthase (H-PGDS) (Homo sapiens, UniProt O60760).
T1 construct: Full length human H-PGDS cDNA (Invitrogen Ultimate ORF IOH13026) was amplified by PCR; 6-His (N); TEV protease cleavage site (N); made in house; host or cells: E. coli BL21 (DE3*)
The experiment can be described thus: H-PGDS RapidFire high throughput mass spectrometry assay (conversion of PGH2 to PGD2). Type of experiment: biochemical. The following applies: 10 nM H-PGDS, PGH2 formed in situ by COX-2 from arachidonic acid; four parameter curve fit; read-out: Potency Range (mean pIC50) (converted). The procedure, abridged:
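His-tagged full-length human H-PGDS from E. coli converts PGH2, generated in situ at ~10 μM from arachidonic acid by FLAG-tagged human COX-2 from Sf9 cells. RapidFire SPE-triple quadrupole MS measures PGD2 against PGF2α as substrate surrogate; percent conversion is calculated.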

T1 sequence (O60760 whole entry): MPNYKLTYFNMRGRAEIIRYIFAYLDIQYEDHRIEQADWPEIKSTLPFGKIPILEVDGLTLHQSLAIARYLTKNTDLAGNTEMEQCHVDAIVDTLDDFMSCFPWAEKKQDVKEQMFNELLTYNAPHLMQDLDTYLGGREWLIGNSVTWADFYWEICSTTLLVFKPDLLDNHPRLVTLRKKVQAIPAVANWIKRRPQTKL

Take `CC(C)(O)[C@H]1CC[C@H](NC(=O)c2cnc3nc(C4CC4)ccc3c2)CC1` [Example 21, 7-Cyclopropyl-N-((trans)-4-(2-hydroxypropan-2-yl)cyclohexyl)-1,8-naphthyridine-3-carboxamide]: the “kinetics of recovery of maximal isometric force after injury” value in experiment [1] (PO 3 and 10 mg/kg QD beginning 10 min prior to eccentric contraction challenge) is “acceleration in the kinetics of recovery”. The “initial magnitude of the injury (isometric limb force 24 hours following protocol initiation)” value in experiment [1] (PO 3 and 10 mg/kg QD, 24 hours) is “reduced the initial magnitude of the injury”. Also, the IC50 in experiment [2] is less than 10 nM.
